Data reported in patent US7022736B2, “Enzyme inhibitors” (Istituto Di Ricerche Di Biologia Molecolare P Angeletti SpA, priority 1998, dated 2006).
Like-named read-outs stand apart in the source and are kept apart here.

Assays:
[1] = target: T1, HCV RdRp (NS5B RNA-dependent RNA polymerase) (Hepatitis C virus genotype 1b, UniProt P26663); assay: Inhibition of hepatitis C virus RdRp (poly(A)/oligo(U), [3H]UTP incorporation); assay type: biochemical
T1 construct: The HCV NS5B protein is the viral RdRp; made in house; host or cells: insect cells infected with recombinant baculovirus
Outline: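 Baculovirus-expressed recombinant NS5B (20 nM) polymerised on poly(A) template (10 μg/ml) with oligo(U)12 primer, 10 μM UTP plus [3H]UTP, pH 7.5 Tris buffer with 5 mM MgCl2, 1 h at 22 °C. Acid-insoluble radioactivity counted on filters; IC50 fitted from residual activity with slope term.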

[2] = target: T2, polymerase of hepatitis B virus (HBV pol) (Hepatitis B virus genotype D subtype ayw, UniProt P03156); assay: Inhibition of hepatitis B virus polymerase (32P-dNTP incorporation, viral particles from patient sera); assay type: biochemical; details: Tables IXa-IXc; unit inferred; NA=not active as an inhibitor
T2 construct: obtained in the form of viral particles from the sera of HBV positive patients; from tissue; host or cells: sera of HBV positive patients (viral particles)
Protocol: Analogous assays employed the polymerase of hepatitis B virus (HBV pol), obtained in the form of viral particles from the sera of HBV positive patients. These particles contain a polymerase bound to an incomplete double stranded DNA template. In the assay the incorporation of ^32P-dNTP is measured as radioactivity incorporated in acid insoluble precipitate.
The standard reaction (100 μl) was carried out in a buffer containing 50 mM tris/HCl pH 7.5, 30 mM MgCl 2 , 1 mM DTT, 100 mM KCl, 0.02% Triton X-100, 1 μCi[^32P] dCTP (300 Ci/mmol, NEN), 1 μM dATP, dTTP, dGTP. After 1 hour incubation at 37° C. the reaction was stopped by adding 100 μl of 20% TCA and applying samples to DE81 filters. The filters were processed and IC50 values calculated as described above.

[3] = target: T3, reverse transcriptase of HIV (HIV-1 RT) (Human immunodeficiency virus type 1 group M subtype B, UniProt P03366); assay: Inhibition of HIV-1 reverse transcriptase ([3H]dTTP incorporation); assay type: biochemical, Human Immunodeficiency Virus-1; details: Tables IXa-IXc; unit inferred; NA=not active as an inhibitor
T3 construct: the reverse transcriptase of HIV (HIV -1RT) from Boehringer Mannhium; purchased Boehringer Mannheim (printed 'Boehringer Mannhium')
Protocol: Test for Inhibition of Human Immunodeficiency Virus-1 Reverse Transcriptase
Analogous assays employed the reverse transcriptase of HIV (HIV -1RT) from Boehringer Mannhium.
Incorporation of radioactive dTTP was measured as follows. The standard reaction (100 μl) was carried out in a buffer containing 50 mM tris/HCl pH 8.2, 2.5 mM MgCl 2, 1 mM DTT, 80 mM KCl, 5 mM EGTA, 0.05% Triton X-100, 1 μCi[3H] dTTP (40 Ci/mmol, NEN), 10 μM […] and 10 μg/ml poly(A)/dT (from Pharmacia).

[4] = Tables I-VIII, 20 nM NS5B, 1 hour at 22° C., read-out: IC 50 (μM), HCV-polymerase
[5] = Tables IXa-IXc, unit inferred, read-out: HCV (IC50)

T2 sequence (P03156 whole entry): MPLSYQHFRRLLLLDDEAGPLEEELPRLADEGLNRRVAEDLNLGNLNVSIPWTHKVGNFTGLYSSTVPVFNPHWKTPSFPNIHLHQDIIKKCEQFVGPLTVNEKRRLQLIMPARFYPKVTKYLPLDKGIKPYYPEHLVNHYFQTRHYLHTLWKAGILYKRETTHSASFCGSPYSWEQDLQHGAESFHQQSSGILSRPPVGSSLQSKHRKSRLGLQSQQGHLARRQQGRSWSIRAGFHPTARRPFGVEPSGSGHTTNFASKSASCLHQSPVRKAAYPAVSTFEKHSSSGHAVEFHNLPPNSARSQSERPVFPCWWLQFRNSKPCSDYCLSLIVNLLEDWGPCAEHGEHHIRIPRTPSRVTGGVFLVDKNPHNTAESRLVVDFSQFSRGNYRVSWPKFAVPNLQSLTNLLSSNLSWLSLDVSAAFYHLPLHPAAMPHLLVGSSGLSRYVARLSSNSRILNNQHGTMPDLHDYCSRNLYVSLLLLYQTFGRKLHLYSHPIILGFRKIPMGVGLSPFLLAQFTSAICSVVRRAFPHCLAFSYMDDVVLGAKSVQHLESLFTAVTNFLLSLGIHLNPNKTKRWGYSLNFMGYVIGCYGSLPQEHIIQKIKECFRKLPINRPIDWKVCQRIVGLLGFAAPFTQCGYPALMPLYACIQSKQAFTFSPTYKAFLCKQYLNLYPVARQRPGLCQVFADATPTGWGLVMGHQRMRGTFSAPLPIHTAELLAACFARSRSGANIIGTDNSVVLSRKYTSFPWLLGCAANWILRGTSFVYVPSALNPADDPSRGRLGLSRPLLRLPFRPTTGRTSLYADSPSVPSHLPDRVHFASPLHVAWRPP
T1 sequence (P26663 2420-3010): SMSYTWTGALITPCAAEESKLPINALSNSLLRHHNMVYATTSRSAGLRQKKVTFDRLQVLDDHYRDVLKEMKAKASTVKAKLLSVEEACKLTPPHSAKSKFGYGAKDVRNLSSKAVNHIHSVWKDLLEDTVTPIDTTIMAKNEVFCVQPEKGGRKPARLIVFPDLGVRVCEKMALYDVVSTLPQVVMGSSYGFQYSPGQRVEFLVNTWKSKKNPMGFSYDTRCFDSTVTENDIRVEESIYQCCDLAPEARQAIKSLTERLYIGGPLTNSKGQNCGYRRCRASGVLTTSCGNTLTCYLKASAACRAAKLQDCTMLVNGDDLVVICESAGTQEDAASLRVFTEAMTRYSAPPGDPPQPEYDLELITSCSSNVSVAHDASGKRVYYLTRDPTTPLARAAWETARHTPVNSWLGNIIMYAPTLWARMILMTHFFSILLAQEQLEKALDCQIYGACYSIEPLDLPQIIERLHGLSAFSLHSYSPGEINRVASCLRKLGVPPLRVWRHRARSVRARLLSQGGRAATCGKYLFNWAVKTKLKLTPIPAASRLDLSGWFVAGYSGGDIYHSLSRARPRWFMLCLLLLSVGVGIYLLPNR

Row | SMILES | IC50 [1, 4] | IC50 [1, 5] | IC50 [2] | IC50 [3]
1 | O=C(O)C(O)=CC(=O)c1ccc(-c2ccccc2)s1 [Example 196] | 15 µM | 15 µM | 9 µM | 50 µM
2 | N#CCCCOc1ccccc1C(=O)C=C(O)C(=O)O [Example 20] | 0.38 µM | 0.38 µM |  | 27 µM
3 | N#Cc1c(Cl)cc(Cl)cc1COc1cccc(C(=O)C=C(O)C(=O)O)c1 [Example 126] | 0.056 µM | 0.056 µM |  | 100 µM
4 | O=C(O)C(O)=CC(=O)c1cccc(NS(=O)(=O)c2cccc3ccccc23)c1 [Example 78] | 0.67 µM | 0.67 µM |  | 35 µM
5 | O=C(O)C(O)=CC(=O)c1cccc(OCc2ccccc2)c1 [Example 4] | 8 µM | 8 µM |  | > 100 µM
6 | O=C(O)C(O)=CC(=O)c1ccc(Cc2cccc(F)c2)s1 [Example 205] | 74 µM | 74 µM | 3.3 µM | 
7 | N#Cc1cccc(Cl)c1COc1cccc(C(=O)C=C(O)C(=O)O)c1 [Example 107] | 0.14 µM | 0.14 µM |  | 58 µM
8 | Cc1ccc(OCCCC#N)c(C(=O)C=C(O)C(=O)O)c1 [Example 21] | 0.955 µM | 1 µM |  | > 50 µM
9 | O=C(O)C(O)=CC(=O)c1ccccc1Cc1ccc(F)cc1 [Example 40] | 8.3 µM | 8.3 µM |  | 12 µM
10 | O=C(O)C(O)=CC(=O)c1ccccc1 [Example 1] | 5.6 µM | 5.6 µM |  | 90 µM
11 | Cc1cccc(C(=O)C=C(O)C(=O)O)c1 [Example 19] | 11.9 µM | 12 µM |  | 77 µM
12 | Cc1sc(-c2ccccc2)cc1C(=O)C=C(O)C(=O)O [Example 225] | 167 µM | 167 µM | 4 µM | 86 µM
13 | O=C(O)C(O)=CC(=O)c1cccc(OCc2c(F)cccc2F)c1 [Example 7] | 2.92 µM | 3.3 µM |  | 61 µM
14 | O=C(O)C(O)=CC(=O)c1ccc(Cc2ccccc2)s1 [Example 202] | 68 µM | 70 µM | 9 µM | > 100 µM
15 | O=C(O)C(O)=CC(=O)c1cc(O)cc(OCc2ccccc2)c1 [Example 155] | 1.4 µM | 1.4 µM |  | 130 µM
16 | O=C(O)C(O)=CC(=O)c1ccc(Cc2ccc(F)cc2)s1 [Example 206] | 65 µM | 65 µM | 2 µM | 
17 | O=C(O)C(O)=CC(=O)c1cccc(NS(=O)(=O)c2c(Cl)cccc2Cl)c1 [Example 120] | 0.36 µM | 0.36 µM |  | 80 µM
